Target: T1, ΔF508-CFTR (Homo sapiens, UniProt P13569, DEL508-508)
T1 construct: Primary lung epithelial cells homozygous for the Cystic Fibrosis-causing ΔF508 mutation were differentiated for a minimum of 4 weeks; endogenous in cells; host or cells: primary lung (bronchial) epithelial cells (hBE) homozygous for ΔF508, differentiated at an air-liquid interface
Test: hBE equivalent current (Ieq) assay
Type: cell-based
Conditions: 24 h, relative to a CFTR amplifier at 3 uM, AUC of equivalent chloride current, primary lung epithelial cells homozygous for ΔF508; for Activity 3 μM: compound at 3 μM; for Activity 10 μM: compound at 10 μM
Experimental: ii. hBE Equivalent Current (Ieq) Assay
Primary lung epithelial cells homozygous for the Cystic Fibrosis-causing ΔF508 mutation were differentiated for a minimum of 4 weeks in an air-liquid interface on Costar 24 well HTS filter plates prior to the equivalent current (Ieq) measurements. Cells were apically mucus-washed for 30 minutes 24 h prior to treatment with compounds. The basolateral media was removed and replaced with media containing the compound of interest diluted to its final concentration from DMSO stocks. Treated cells were incubated at 37° C. and 5% CO2 for 24 hours. At the end of the treatment period, the media was changed to the Ieq experimental solution for 2 hours before the experiment and plates are maintained in a CO2-free incubator during this period. The plates containing the cells were then placed in pre-warmed heating blocks at 36° C.±0.5 for 15 minutes before measurements are taken. The transepithelial voltage (VT) and conductance (GT) were measured using a custom 24 channel current clamp (TECC-24) with 24 well electrode manifold. The Ieq assay measurements were made following additions with standardized time periods:
1. The baseline VT and GT values were measured for approximately 20 minutes.
2. Benzamil was added to block ENaC for 15 minutes.
3. Forskolin plus VX-770 were added to maximally activate ΔF508-CFTR for 27 minutes.
4. Bumetanide was added to inhibit the NaK2Cl cotransporter and shut-off secretion of chloride.
The activity data captured was the area under the curve (AUC) for the traces of the equivalent chloride current. The AUC was collected from the time of the forskolin/VX-770 addition until the inhibition by bumetanide addition. Correction in response to compound treatment was scored as the increase in the AUC for compound-treated samples over that of vehicle-treated samples.
The results are shown below in Table 1. + indicates activity <150% of a CFTR amplifier with compound at concentration shown and amplifier at 3 uM; ++ indicates activity >150% of a CFTR amplifier with compound at concentration shown and amplifier at 3 uM.

T1 sequence (P13569 with tags, fused parts or gaps DEL508-508): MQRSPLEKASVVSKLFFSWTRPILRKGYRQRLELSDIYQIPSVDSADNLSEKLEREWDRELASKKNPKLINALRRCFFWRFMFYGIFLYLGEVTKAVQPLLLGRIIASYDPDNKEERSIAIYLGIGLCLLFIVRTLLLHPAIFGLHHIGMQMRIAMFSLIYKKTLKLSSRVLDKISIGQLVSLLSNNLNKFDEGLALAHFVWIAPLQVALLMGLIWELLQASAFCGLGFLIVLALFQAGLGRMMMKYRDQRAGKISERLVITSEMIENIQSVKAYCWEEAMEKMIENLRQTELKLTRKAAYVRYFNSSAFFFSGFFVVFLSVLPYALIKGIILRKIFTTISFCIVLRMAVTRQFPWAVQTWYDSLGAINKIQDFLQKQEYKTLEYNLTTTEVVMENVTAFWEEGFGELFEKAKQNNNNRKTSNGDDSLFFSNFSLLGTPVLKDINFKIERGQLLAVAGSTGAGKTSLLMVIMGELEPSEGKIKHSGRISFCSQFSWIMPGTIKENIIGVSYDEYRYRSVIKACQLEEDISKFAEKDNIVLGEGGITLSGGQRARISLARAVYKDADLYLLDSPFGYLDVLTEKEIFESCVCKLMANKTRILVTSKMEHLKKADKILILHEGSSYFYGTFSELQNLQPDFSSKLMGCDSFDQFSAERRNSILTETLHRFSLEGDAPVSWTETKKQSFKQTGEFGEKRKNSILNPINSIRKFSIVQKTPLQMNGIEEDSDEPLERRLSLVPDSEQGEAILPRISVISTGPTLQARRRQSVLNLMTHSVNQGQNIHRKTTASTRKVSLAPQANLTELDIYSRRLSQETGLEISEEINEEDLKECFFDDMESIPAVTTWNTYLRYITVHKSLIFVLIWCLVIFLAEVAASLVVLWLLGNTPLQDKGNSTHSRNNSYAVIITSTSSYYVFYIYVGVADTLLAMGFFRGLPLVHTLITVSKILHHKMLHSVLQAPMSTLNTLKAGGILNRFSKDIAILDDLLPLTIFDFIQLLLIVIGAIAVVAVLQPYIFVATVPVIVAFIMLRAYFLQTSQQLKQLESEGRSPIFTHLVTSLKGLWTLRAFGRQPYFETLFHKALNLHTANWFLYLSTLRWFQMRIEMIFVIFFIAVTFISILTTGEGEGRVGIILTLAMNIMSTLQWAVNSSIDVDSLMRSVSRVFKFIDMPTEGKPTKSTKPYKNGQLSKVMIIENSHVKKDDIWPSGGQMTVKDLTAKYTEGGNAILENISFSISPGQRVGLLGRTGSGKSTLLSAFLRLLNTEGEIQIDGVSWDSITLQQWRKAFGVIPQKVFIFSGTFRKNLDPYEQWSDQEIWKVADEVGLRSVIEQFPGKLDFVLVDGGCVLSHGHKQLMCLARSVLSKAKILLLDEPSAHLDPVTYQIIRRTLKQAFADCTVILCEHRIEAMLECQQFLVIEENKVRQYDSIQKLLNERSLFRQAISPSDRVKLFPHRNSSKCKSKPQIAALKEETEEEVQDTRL

COc1cccc(-c2ccc(=O)n(C(C)C(=O)Nc3cccnc3)n2)c1 (centres unmarked) [Compound 6, 2-(3-(3-Methoxyphenyl)-6-oxopyridazin-1(6H)-yl)-N-(pyridin-3-yl)propanamide]
Activity 3 μM: + (activity <150% of a CFTR amplifier with compound at concentration shown and amplifier at 3 uM)
Activity 10 μM: + (activity <150% of a CFTR amplifier with compound at concentration shown and amplifier at 3 uM)

COc1ccnc(-c2ccc(=O)n(C(C)C(=O)Nc3ccc(C(F)(F)F)cc3)n2)c1 (centres unmarked) [Compound 21, 2-(3-(4-Methoxypyridin-2-yl)-6-oxopyridazin-1(6H)-yl)-N-(4-(trifluoromethyl)phenyl)propanamide]
Activity 10 μM: + (activity <150% of a CFTR amplifier with compound at concentration shown and amplifier at 3 uM)

COc1cccc(-c2ccc(=O)n(C(C)C(=O)Nc3ccc4cc[nH]c4c3)n2)c1 (centres unmarked) [Compound 2, N-(1H-Indol-6-yl)-2-[3-(3-methoxyphenyl)-6-oxo-1,6-dihydropyridazin-1-yl]propanamide]
Activity 3 μM: + (activity <150% of a CFTR amplifier with compound at concentration shown and amplifier at 3 uM)
Activity 10 μM: + (activity <150% of a CFTR amplifier with compound at concentration shown and amplifier at 3 uM)

CC(C(=O)Nc1ccc(C(F)(F)F)cc1)n1nc(-c2ccsc2Cl)ccc1=O (centres unmarked) [Compound 24, 2-(3-(2-Chlorothiophen-3-yl)-6-oxopyridazin-1(6H)-yl)-N-(4-(trifluoromethyl)phenyl)propanamide]
Activity 10 μM: ++ (activity >150% of a CFTR amplifier with compound at concentration shown and amplifier at 3 uM)

CC(C(=O)Nc1ccc(C(F)(F)F)cn1)n1nc(-c2cccc(Cl)c2)ccc1=O (centres unmarked) [Compound 17, 2-(3-(3-Chlorophenyl)-6-oxopyridazin-1(6H)-yl)-N-(5-(trifluoromethyl)pyridin-2-yl)propanamide]
Activity 3 μM: ++ (activity >150% of a CFTR amplifier with compound at concentration shown and amplifier at 3 uM)
Activity 10 μM: ++ (activity >150% of a CFTR amplifier with compound at concentration shown and amplifier at 3 uM)

COc1cc(-c2ccc(=O)n(C(C)C(=O)Nc3ccc(C(F)(F)F)cc3)n2)ccn1 (centres unmarked) [Compound 19, 2-(3-(2-Methoxypyridin-4-yl)-6-oxopyridazin-1(6H)-yl)-N-(4-(trifluoromethyl)phenyl)propanamide]
Activity 3 μM: + (activity <150% of a CFTR amplifier with compound at concentration shown and amplifier at 3 uM)
Activity 10 μM: + (activity <150% of a CFTR amplifier with compound at concentration shown and amplifier at 3 uM)

COc1cccc(-c2ccc(=O)n(C(C)C(=O)Nc3ccc(C(F)(F)F)nc3)n2)c1 (centres unmarked) [Compound 9, 2-(3-(3-Methoxyphenyl)-6-oxopyridazin-1(6H)-yl)-N-(6-(trifluoromethyl)pyridin-3-yl)propanamide]
Activity 3 μM: ++ (activity >150% of a CFTR amplifier with compound at concentration shown and amplifier at 3 uM)
Activity 10 μM: + (activity <150% of a CFTR amplifier with compound at concentration shown and amplifier at 3 uM)

CC(C(=O)Nc1ccc(C(F)(F)F)cc1)n1nc(-c2cccs2)ccc1=O (centres unmarked) [Compound 13, 2-[6-oxo-3-(thiophen-2-yl)-1,6-dihydropyridazin-1-yl]-N-[4-(trifluoromethyl)phenyl]propanamide]
Activity 3 μM: ++ (activity >150% of a CFTR amplifier with compound at concentration shown and amplifier at 3 uM)
Activity 10 μM: + (activity <150% of a CFTR amplifier with compound at concentration shown and amplifier at 3 uM)

COc1csc(-c2ccc(=O)n(C(C)C(=O)Nc3ccc(C(F)(F)F)cc3)n2)c1 (centres unmarked) [Compound 18, 2-(3-(4-Methoxythiophen-2-yl)-6-oxopyridazin-1(6H)-yl)-N-(4-(trifluoromethyl)phenyl)propanamide]
Activity 10 μM: + (activity <150% of a CFTR amplifier with compound at concentration shown and amplifier at 3 uM)

COc1cncc(-c2ccc(=O)n(C(C)C(=O)Nc3ccc(C(F)(F)F)cc3)n2)c1 (centres unmarked) [Compound 20, 2-(3-(5-Methoxypyridin-3-yl)-6-oxopyridazin-1(6H)-yl)-N-(4-(trifluoromethyl)phenyl)propanamide]
Activity 3 μM: ++ (activity >150% of a CFTR amplifier with compound at concentration shown and amplifier at 3 uM)
Activity 10 μM: ++ (activity >150% of a CFTR amplifier with compound at concentration shown and amplifier at 3 uM)

CC(C(=O)Nc1ccc(C(F)(F)F)cc1)n1nc(-c2ccc(Cl)s2)ccc1=O (centres unmarked) [Compound 14, 2-(3-(5-Chlorothiophen-2-yl)-6-oxopyridazin-1(6H)-yl)-N-(4-(trifluoromethyl)phenyl)propanamide]
Activity 3 μM: ++ (activity >150% of a CFTR amplifier with compound at concentration shown and amplifier at 3 uM)
Activity 10 μM: ++ (activity >150% of a CFTR amplifier with compound at concentration shown and amplifier at 3 uM)

COc1cccc(-c2ccc(=O)n(C(C)C(=O)NC3CCCCC3)n2)c1 (centres unmarked) [Compound 4, N-Cyclohexyl-2-(3-(3-methoxyphenyl)-6-oxopyridazin-1(6H)-yl)propanamide]
Activity 3 μM: + (activity <150% of a CFTR amplifier with compound at concentration shown and amplifier at 3 uM)
Activity 10 μM: + (activity <150% of a CFTR amplifier with compound at concentration shown and amplifier at 3 uM)

COc1cccc(-c2ccc(=O)n(C(C)C(=O)Nc3ccc(C(F)(F)F)cc3)n2)n1 (centres unmarked) [Compound 22, 2-(3-(6-Methoxypyridin-2-yl)-6-oxopyridazin-1(6H)-yl)-N-(4-(trifluoromethyl)phenyl)propanamide]
Activity 3 μM: ++ (activity >150% of a CFTR amplifier with compound at concentration shown and amplifier at 3 uM)
Activity 10 μM: + (activity <150% of a CFTR amplifier with compound at concentration shown and amplifier at 3 uM)

COc1cccc(-c2ccc(=O)n(C(C)C(=O)Nc3ccccn3)n2)c1 (centres unmarked) [Compound 5, 2-(3-(3-Methoxyphenyl)-6-oxopyridazin-1(6H)-yl)-N-(pyridin-2-yl)propanamide]
Activity 3 μM: + (activity <150% of a CFTR amplifier with compound at concentration shown and amplifier at 3 uM)
Activity 10 μM: + (activity <150% of a CFTR amplifier with compound at concentration shown and amplifier at 3 uM)

CC(C(=O)Nc1ccc(C(F)(F)F)cc1)n1nc(-c2csc(Cl)n2)ccc1=O (centres unmarked) [Compound 26, 2-[3-(2-Chloro-1,3-thiazol-4-yl)-6-oxo-1,6-dihydropyridazin-1-yl]-N-[4-(trifluoromethyl)phenyl]propanamide]
Activity 10 μM: + (activity <150% of a CFTR amplifier with compound at concentration shown and amplifier at 3 uM)

COc1cccc(-c2ccc(=O)n(C(C)C(=O)Nc3ccc(C(F)(F)F)cn3)n2)c1 (centres unmarked) [Compound 8, 2-[3-(3-Methoxyphenyl)-6-oxo-1,6-dihydropyridazin-1-yl]-N-[5-(trifluoromethyl)pyridin-2-yl]propanamide]
Activity 3 μM: ++ (activity >150% of a CFTR amplifier with compound at concentration shown and amplifier at 3 uM)
Activity 10 μM: ++ (activity >150% of a CFTR amplifier with compound at concentration shown and amplifier at 3 uM)

CC(C(=O)Nc1ccc(C(F)(F)F)cc1)n1nc(-c2csc(Cl)c2)ccc1=O (centres unmarked) [Compound 16, 2-[3-(5-Chlorothiophen-3-yl)-6-oxo-1,6-dihydropyridazin-1-yl]-N-[4-(trifluoromethyl)phenyl]propanamide]
Activity 3 μM: ++ (activity >150% of a CFTR amplifier with compound at concentration shown and amplifier at 3 uM)
Activity 10 μM: ++ (activity >150% of a CFTR amplifier with compound at concentration shown and amplifier at 3 uM)

CC(C(=O)Nc1ccc(C(F)(F)F)cc1)n1nc(-c2cnc(Cl)s2)ccc1=O (centres unmarked) [Compound 27, 2-[3-(2-Chloro-1,3-thiazol-5-yl)-6-oxo-1,6-dihydropyridazin-1-yl]-N-[4-(trifluoromethyl)phenyl]propanamide]
Activity 10 μM: + (activity <150% of a CFTR amplifier with compound at concentration shown and amplifier at 3 uM)

CC(C(=O)Nc1ccc(C(F)(F)F)cc1)n1nc(-c2cc(Cl)sc2Cl)ccc1=O (centres unmarked) [Compound 25, 2-(3-(2,5-Dichlorothiophen-3-yl)-6-oxopyridazin-1(6H)-yl)-N-(4-(trifluoromethyl)phenyl)propanamide]
Activity 10 μM: + (activity <150% of a CFTR amplifier with compound at concentration shown and amplifier at 3 uM)

From US20190248779A1, “COMPOUNDS, COMPOSITIONS, AND METHODS FOR INCREASING CFTR ACTIVITY” (Proteostasis Therapeutics, Inc., priority 2016, published 2019)
